How the values were obtained:
PfCRT [1] = assay: Potential co-substrates tested for influx of VF-6 via PfCRT into the oocyte; format: cell-based, Plasmodium falciparum; set-up: key: X: Compounds that have been tested as potential co-substrates but are not required for influx of VF-6 via PfCRT into the oocyte
PfNT1 = biological target: T1, PfNT1 (Plasmodium falciparum, UniProt Q8IDM6); assay: cell-based; format: cell-based; conditions: SEM
T1 construct: expressed in transfected cells; host or cells: Xenopus laevis oocytes (stage V-VI), cRNA-injected
T1 sequence (Q8IDM6 whole entry): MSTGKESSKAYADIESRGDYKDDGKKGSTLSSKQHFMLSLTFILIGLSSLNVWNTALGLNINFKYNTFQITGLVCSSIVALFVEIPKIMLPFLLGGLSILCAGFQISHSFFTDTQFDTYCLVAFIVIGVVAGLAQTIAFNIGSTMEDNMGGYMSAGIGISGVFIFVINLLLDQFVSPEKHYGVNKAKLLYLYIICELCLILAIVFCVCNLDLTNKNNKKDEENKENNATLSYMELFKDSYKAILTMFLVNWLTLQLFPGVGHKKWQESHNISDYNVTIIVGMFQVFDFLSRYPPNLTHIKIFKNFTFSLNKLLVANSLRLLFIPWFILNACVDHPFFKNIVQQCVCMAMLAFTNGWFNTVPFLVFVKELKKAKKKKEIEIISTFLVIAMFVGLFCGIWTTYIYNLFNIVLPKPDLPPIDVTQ
Outline: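 Transport measured in Xenopus oocytes expressing the transporters, 1.5 h at 27.5 °C in ND96 pH 5.5 unless noted. For trans-stimulation, VF-6 injected in 25 nL ND96 at pH 5.0–7.0 or Na^+-free (choline) buffer; intracellular levels based on ~400 nL oocyte volume. Ten oocytes per treatment, ≥4 experiments.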

PfCRT [2] = assay: Test of solutes as potential co-substrates for influx of VF-6 via PfCRT into the oocyte; format: cell-based, Plasmodium falciparum; set-up: key: X: Compounds that have been tested as potential co-substrates but are not required for influx of VF-6 via PfCRT into the oocyte; conditions: X = tested
non-expressing oocytes = assay: cells; format: cell-based, Xenopus laevis; conditions: total [3H]CQ transport; for Uptake of [3H]CQ (% non-expressing oocyte control), cis-inhibition: non-expressing oocytes, normalised to the oocyte type control; for Uptake of [3H]CQ (% PfCRTDd2 control), cis-inhibition, non-expressing oocytes: mean ± SEM, SEM
Outline: (§1)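 Assay buffer ND96 (10 mM MES, 10 mM Tris-base) held at pH 5.5 to mimic vacuole lumen; uptake measured inward from this acidic medium over 1.5 h at 27.5 °C.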

PfCRT [3] = assay: Influx of VF-6 via PfCRT into the oocyte, solutes tested as potential co-substrates; format: cell-based, Plasmodium falciparum; set-up: key: X: Compounds that have been tested as potential co-substrates but are not required for influx of VF-6 via PfCRT into the oocyte; conditions: X marks the solute
PfCRT^3D7 = PfCRT^3D7 (Plasmodium falciparum, UniProt Q8IBZ9); assay: cell-based; format: cell-based; conditions: total [3H]CQ transport; for Uptake of [3H]CQ (% PfCRTDd2 control), cis-inhibition, PfCRT3D7: mean ± SEM, SEM
PfCRT^3D7, sequence (Q8IBZ9 59-398): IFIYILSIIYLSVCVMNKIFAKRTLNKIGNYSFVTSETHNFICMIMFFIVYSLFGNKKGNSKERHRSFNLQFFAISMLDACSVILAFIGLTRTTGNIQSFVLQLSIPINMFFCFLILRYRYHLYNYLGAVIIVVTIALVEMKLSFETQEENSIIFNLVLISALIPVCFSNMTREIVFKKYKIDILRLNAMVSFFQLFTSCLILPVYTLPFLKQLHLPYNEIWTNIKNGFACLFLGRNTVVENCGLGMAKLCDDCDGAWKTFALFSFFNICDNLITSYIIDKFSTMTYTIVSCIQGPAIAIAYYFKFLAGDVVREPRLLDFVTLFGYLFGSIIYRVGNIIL
Source text: The orientation of PfCRT in the parasite’s DV membrane, and also in the oocyte plasma membrane, is such that its N- and C-termini extend into the cytosol. The oocytes were suspended in a reaction buffer adjusted to pH 5.5 to mimic the pH of the DV lumen[1],[2]. In this scenario, the transport of a substrate via PfCRT from the acidic extracellular solution into the oocyte cytosol[15] is analogous to the parasite’s PfCRT-mediated efflux of a substrate from the acidic DV and into the cytosol. Unless specified otherwise, this is the direction in which substrate transport was measured in the oocyte assays.
Unless specified otherwise, the transport assays were conducted over 1.5 h at 27.5 °C and the reaction buffer was ND96 (96 mM NaCl, 2 mM KCl, 1 mM MgCl2, 1.8 mM CaCl2, 10 mM MES and 10 mM Tris-base) at pH 5.5.
Ten oocytes were washed twice with the relevant ND96 buffer. […] The assay was terminated by removing the reaction buffer and washing the oocytes with ice-cold ND96 buffer. The oocytes were lysed in 10% (w/v) sodium dodecyl sulfate (SDS) and the radioactivity accumulated within each oocyte was measured with a MicroBeta^2 microplate liquid scintillation analyser (PerkinElmer).
At least four independent experiments were performed (on different days and using oocytes from different frogs), and within each experiment measurements were made from ten oocytes per treatment.

PfCRT^Dd2 = PfCRT^Dd2 (Plasmodium falciparum, UniProt Q9N623, A220S/I356T/K76T/M74I/N326S/N75E/Q271E/R371I); assay: [3H]CQ uptake into Xenopus oocytes, cis-inhibition by unlabelled solute; format: cell-based; conditions: for PfCRT-mediated [3H]CQ transport, cis-inhibition (% PfCRTDd2 control): PfCRTDd2 oocytes, background [3H]CQ accumulation subtracted, normalised to oocyte type control; for Uptake of [3H]CQ (% PfCRTDd2 control), cis-inhibition, PfCRTDd2: total [3H]CQ transport, mean ± SEM, SEM
PfCRT^Dd2, sequence (Q9N623 whole entry A220S/I356T/K76T/M74I/N326S/N75E/Q271E/R371I): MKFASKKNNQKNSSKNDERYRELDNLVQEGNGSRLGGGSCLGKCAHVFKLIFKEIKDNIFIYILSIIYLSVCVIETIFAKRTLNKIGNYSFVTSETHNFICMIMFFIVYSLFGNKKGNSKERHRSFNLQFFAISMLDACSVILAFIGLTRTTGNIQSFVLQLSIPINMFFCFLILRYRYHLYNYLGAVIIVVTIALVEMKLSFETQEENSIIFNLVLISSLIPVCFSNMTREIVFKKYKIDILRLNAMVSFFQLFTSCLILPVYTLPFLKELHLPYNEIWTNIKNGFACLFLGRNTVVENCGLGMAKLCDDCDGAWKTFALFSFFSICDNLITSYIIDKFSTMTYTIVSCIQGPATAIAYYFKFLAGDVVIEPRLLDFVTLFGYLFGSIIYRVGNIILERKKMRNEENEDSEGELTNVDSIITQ
Outline: as §1

PfCRT^Ecu1110 = PfCRT^Ecu1110 (Plasmodium falciparum, UniProt Q9N623, A220S/I356L/K76T/N326D); assay: as above; format: cell-based; conditions: for Uptake of [3H]CQ (% PfCRTEcu1110 control), cis-inhibition / PfCRT-mediated [3H]CQ transport, cis-inhibition (% PfCRTEcu1110 control): PfCRTEcu1110 oocytes; for Uptake of [3H]CQ (% PfCRTEcu1110 control), cis-inhibition / Uptake of [3H]CQ (% PfCRTDd2 control), cis-inhibition, PfCRTEcu1110: total [3H]CQ transport; for Uptake of [3H]CQ (% PfCRTEcu1110 control), cis-inhibition: normalised to the oocyte type control; for PfCRT-mediated [3H]CQ transport, cis-inhibition (% PfCRTEcu1110 control): background [3H]CQ accumulation subtracted, normalised to oocyte type control; for [3H]CQ transport (% PfCRTEcu1110 control), cis-inhibition, PfCRTEcu1110: PfCRT-mediated component (background subtracted), sheet title says normalised to PfCRTDd2 control; for [3H]CQ transport (% PfCRTEcu1110 control), cis-inhibition, PfCRTEcu1110 / Uptake of [3H]CQ (% PfCRTDd2 control), cis-inhibition, PfCRTEcu1110: mean ± SEM, SEM
PfCRT^Ecu1110, sequence (Q9N623 whole entry A220S/I356L/K76T/N326D): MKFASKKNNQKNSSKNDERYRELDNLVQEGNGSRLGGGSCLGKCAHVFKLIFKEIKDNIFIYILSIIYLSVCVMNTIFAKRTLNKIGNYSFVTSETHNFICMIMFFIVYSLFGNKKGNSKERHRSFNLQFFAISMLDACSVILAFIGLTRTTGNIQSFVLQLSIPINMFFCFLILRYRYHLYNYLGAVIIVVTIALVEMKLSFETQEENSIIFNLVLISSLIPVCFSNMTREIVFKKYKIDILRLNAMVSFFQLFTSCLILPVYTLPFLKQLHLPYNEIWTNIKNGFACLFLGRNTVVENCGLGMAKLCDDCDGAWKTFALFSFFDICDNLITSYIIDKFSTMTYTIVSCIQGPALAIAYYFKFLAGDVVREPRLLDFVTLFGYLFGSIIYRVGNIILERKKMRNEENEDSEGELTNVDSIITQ
Outline: as §1

SMILES: N[C@@H](CC(=O)O)C(=O)O [L-aspartatic acid]
- Tested as potential co-substrate but not required for influx of VF-6 via PfCRT into the oocyte (PfCRT [1]): X
- Uptake of [3H]CQ (% PfCRTDd2 control), trans-stimulation, PfNT1 (PfNT1): 2.4 ± 0.08 % PfCRTDd2 control
- Tested as potential co-substrate but not required for influx of VF-6 via PfCRT into the oocyte (PfCRT [2]): X
- Uptake of [3H]CQ (% non-expressing oocyte control), cis-inhibition (non-expressing oocytes; [test solute] = 0.5 mM): 101 ± 4.8 % non-expressing oocyte control
- Uptake of [3H]CQ (% non-expressing oocyte control), cis-inhibition (non-expressing oocytes; [test solute] = 1 mM): 97 ± 6.3 % non-expressing oocyte control
- Uptake of [3H]CQ (% non-expressing oocyte control), cis-inhibition (non-expressing oocytes; [test solute] = 2 mM): 100 ± 4.6 % non-expressing oocyte control
- Uptake of [3H]CQ (% PfCRTDd2 control), cis-inhibition, non-expressing oocytes (non-expressing oocytes; [test solute] = 0.5 mM): 3.9 ± 0.03 % PfCRTDd2 control
- Uptake of [3H]CQ (% PfCRTDd2 control), cis-inhibition, non-expressing oocytes (non-expressing oocytes; [test solute] = 1 mM): 3.2 ± 0.08 % PfCRTDd2 control
- Uptake of [3H]CQ (% PfCRTDd2 control), cis-inhibition, non-expressing oocytes (non-expressing oocytes; [test solute] = 2 mM): 3.4 ± 0.1 % PfCRTDd2 control
- Compounds that have been tested as potential co-substrates but are not required for influx of VF-6 via PfCRT into the oocyte (PfCRT [3]): X
- Uptake of [3H]CQ (% PfCRT3D7 control), cis-inhibition (PfCRT^3D7; PfCRT3D7 oocytes, [test solute] = 2 mM, normalised to the oocyte type control): 100 ± 3.5 % PfCRT3D7 control
- Uptake of [3H]CQ (% PfCRTDd2 control), cis-inhibition, PfCRT3D7 (PfCRT^3D7; [test solute] = 0.5 mM): 3.1 ± 0.07 % PfCRTDd2 control
- Uptake of [3H]CQ (% PfCRTDd2 control), cis-inhibition, PfCRT3D7 (PfCRT^3D7; [test solute] = 1 mM): 2.6 ± 0.08 % PfCRTDd2 control
- Uptake of [3H]CQ (% PfCRTDd2 control), cis-inhibition, PfCRT3D7 (PfCRT^3D7; [test solute] = 2 mM): 2.2 ± 0.06 % PfCRTDd2 control
- PfCRT-mediated [3H]CQ transport, cis-inhibition (% PfCRTDd2 control) (PfCRT^Dd2; [test solute] = 0.5 mM): 90 ± 5.7 % PfCRTDd2 control
- PfCRT-mediated [3H]CQ transport, cis-inhibition (% PfCRTDd2 control) (PfCRT^Dd2; [test solute] = 1 mM): 87 ± 6.1 % PfCRTDd2 control
- PfCRT-mediated [3H]CQ transport, cis-inhibition (% PfCRTDd2 control) (PfCRT^Dd2; [test solute] = 2 mM): 73 ± 3.7 % PfCRTDd2 control
- Uptake of [3H]CQ (% PfCRTDd2 control), cis-inhibition, PfCRTDd2 (PfCRT^Dd2; [test solute] = 0.5 mM): 93 ± 3.6 % PfCRTDd2 control
- Uptake of [3H]CQ (% PfCRTDd2 control), cis-inhibition, PfCRTDd2 (PfCRT^Dd2; [test solute] = 1 mM): 89 ± 5.2 % PfCRTDd2 control
- Uptake of [3H]CQ (% PfCRTDd2 control), cis-inhibition, PfCRTDd2 (PfCRT^Dd2; [test solute] = 2 mM): 75 ± 4.6 % PfCRTDd2 control
- Uptake of [3H]CQ (% PfCRTEcu1110 control), cis-inhibition (PfCRT^Ecu1110; [test solute] = 0.5 mM): 94 ± 4.5 % PfCRTEcu1110 control
- Uptake of [3H]CQ (% PfCRTEcu1110 control), cis-inhibition (PfCRT^Ecu1110; [test solute] = 1 mM): 90 ± 3.6 % PfCRTEcu1110 control
- Uptake of [3H]CQ (% PfCRTEcu1110 control), cis-inhibition (PfCRT^Ecu1110; [test solute] = 2 mM): 83 ± 4.3 % PfCRTEcu1110 control
- PfCRT-mediated [3H]CQ transport, cis-inhibition (% PfCRTEcu1110 control) (PfCRT^Ecu1110; [test solute] = 0.5 mM): 92 ± 1.4 % PfCRTEcu1110 control
- PfCRT-mediated [3H]CQ transport, cis-inhibition (% PfCRTEcu1110 control) (PfCRT^Ecu1110; [test solute] = 1 mM): 88 ± 2.7 % PfCRTEcu1110 control
- PfCRT-mediated [3H]CQ transport, cis-inhibition (% PfCRTEcu1110 control) (PfCRT^Ecu1110; [test solute] = 2 mM): 80 ± 1.3 % PfCRTEcu1110 control
- [3H]CQ transport (% PfCRTEcu1110 control), cis-inhibition, PfCRTEcu1110 (PfCRT^Ecu1110; [test solute] = 0.5 mM): 28 ± 0.7 % PfCRTEcu1110 control
- [3H]CQ transport (% PfCRTEcu1110 control), cis-inhibition, PfCRTEcu1110 (PfCRT^Ecu1110; [test solute] = 2 mM): 24 ± 0.1 % PfCRTEcu1110 control
- Uptake of [3H]CQ (% PfCRTDd2 control), cis-inhibition, PfCRTEcu1110 (PfCRT^Ecu1110; [test solute] = 0.5 mM): 31 ± 1.5 % PfCRTDd2 control
- Uptake of [3H]CQ (% PfCRTDd2 control), cis-inhibition, PfCRTEcu1110 (PfCRT^Ecu1110; [test solute] = 1 mM): 30 ± 1.4 % PfCRTDd2 control
- Uptake of [3H]CQ (% PfCRTDd2 control), cis-inhibition, PfCRTEcu1110 (PfCRT^Ecu1110; [test solute] = 2 mM): 27 ± 1.0 % PfCRTDd2 control
